We go through two compounds from US20160324881A1, “Neurokinin-1 Receptor Antagonists For Use In A Method Of Prevention Of Cancer” (priority 2013, published 2016).

In data set [1] the test system is A549 cells. As to the kind of experiment: Soft agar growth assay (Alamar Blue), A549. Format: cell-based. To be noted: Homo sapiens. For orientation: The colour change of resazurin is a common sign of viable cells or microbes.
Procedure: (§1) Aprepitant (Biorbit) and fosaprepitant (IVEMEND®, MSD) were dissolved at a concentration of 100 mM in 100% DMSO (aprepitant) or in 0.9% NaCl (fosaprepitant). Actinomycin D was used as reference compound.
(§2) Stock solutions were diluted covering the final concentration range between 0 and 200 μM. The appropriate solvent controls were performed in parallel.
(§3) Compounds dissolved in DMSO (aprepitant as well as Actinomycin D) were diluted in 8 semilog steps in DMSO to obtain a dilution series with the 1000 fold final concentration.
(§4) Fosaprepitant was diluted in 8 semilog steps in 0.9% NaCl to obtain a dilution series with the 1000 fold final concentration.
(§5) Cancer cells stemming from established cancer cell lines (A549, HCT116, MDA-MB231) were cultured in DMEM containing 10% FCS and Penicillin/Streptomycin.
(§6) For each cell line 96 well suspension cell culture plates were prepared. 100 μL of the soft agar bottom layer (0.6% final concentration in complete medium) was poured and left to solidify. […]
(§7) Next day, compounds were added into the inner wells of the plate. […] Finally, the assays were developed using Alamar Blue and upon 3-5 h of incubation at 37° C. fluorescence intensity was determined (excitation: 560 nm; emission: 590 nm). […]
The subject of data set [2] is HCT116 cells. As to the kind of experiment: Soft agar growth assay (Alamar Blue), HCT116. Format: cell-based. To be noted: Homo sapiens, HCT-116, 192 h.
Procedure: as §1, §2, §3, §4, §5, §6, §7
In data set [3] the test system is MDA-MB231 cells. As to the kind of experiment: Soft agar growth assay (Alamar Blue), MDA-MB231. Format: cell-based. The settings on record: Homo sapiens, MDA-MB-231, 264 h.
Procedure: as §1, §2, §3, §4, §5, §6, §7
The test system of data set [4] is MDA-MB-231 cells (triple negative tumor cells). In words: Example 5: preventive treatment of xenografted nude mice (FIG. 4). The settings on record: MDA-MB-231 xenograft; fosaprepitant i.v. 60 mg/kg/d, aprepitant p.o. 100 mg/kg/d, once daily for 19 days from day -2. Format: in vivo. Here is the method: After an acclimatization period, application of fosaprepitant, aprepitant and vehicle control was started (day −2): Fosaprepitant was administered intravenously (i.v.; 60 mg/kg/d) once daily for 19 days, and aprepitant was administered per oral gavage (p.o.; 100 mg/kg/d) once daily for 19 days. […] The tumor volume was measured and depicted as mm3 at the indicated time points.
FIG. 4: In vivo treatment of xenografted mice with fosaprepitant and aprepitant. After an acclimatization period, application of fosaprepitant, aprepitant and vehicle control was started (day −2): Fosaprepitant was administered intravenously (i.v.; 60 mg/kg/d) once daily for 19 days, and aprepitant was administered per oral gavage (p.o.; 100 mg/kg/d) once daily for 19 days. […] The tumor volume was measured and depicted as mm3 at the indicated time points.

The conditions of data set [5]: capsules; cited from earlier work.
Data set [6] addresses NK1 receptors (Homo sapiens, UniProt P25103). The settings on record: versus other receptors such as serotonin, dopamine, corticosteroid; estimated; cited from earlier work.
The test system of data set [7] is brain tumors. The settings on record: background report; cited from earlier work.
For data set [8] the following is noted: cited from earlier work.
Data set [9] has as its system A549 cells. As to the kind of experiment: Xenograft tumor model, preventive application, A549. To be noted: aprepitant 100 mg/kg p.o., fosaprepitant 60 mg/kg i.v., 1x daily from day -2.
Procedure: (§8) The ability of fosaprepitant and aprepitant to prevent tumor formation in xenograft models for breast cancer, lung cancer and colon cancer was investigated.
(§9) Monolayer MDA-MB-231 cells, HCT-116 cells and A549 cells, respectively, were grown in DMEM+10% FCS. The cells were cultured in a humidified atmosphere of 90% air and 10% carbon dioxide at 37° C. Media was routinely changed every 3 days. Confluent cultures were split 1:3 to 1:3 every 3-4 days using Trypsin/EDTA and seeded at a density of approximately 3-4×10^6 cells/15 cm^2+25 mL medium.
(§10) Female BALB/c nude (CAnN.Cg-Foxn1^nu/Crl) Mice (Charles River GmbH, Sulzfeld, Germany) aged 4-5 weeks at delivery and weighing approximately 15-18 g were kept under optimum hygienic conditions, air-conditioned with 10-15 air changes per hour, and continually monitored environment with target ranges for temperature 22±3° C. and for relative humidity 30-70%, 12 hours artificial fluorescent light/12 hours dark. Maximum 4 animals were kept per individual ventilated cage (IVC) and fed with a diet consisting of M-Zucht (ssniff Spezialdiáten GmbH) and autoclaved community tab water.
(§11) After an acclimatization period of 4 days (day −2) application of fosaprepitant, aprepitant and vehicle was started: Fosaprepitant was administered intravenously (i.v.) once daily for 20 days, and aprepitant was administered per oral gavage (p.o.) once daily for 20 days. Fosaprepitant was dissolved in 0.9% NaCl and 0.9% NaCl was used analogous to fosaprepitant as control (vehicle 1). As aprepitant is not water-soluble, it was provided as a suspension of ground EMEND® tablets in OraPlus® (Paddock Laboratories, Minneapolis, USA; contains: purified water, microcrystalline cellulose, carboxymethylcellulose sodium, xanthan gum, flavouring, citric acid, sodium phosphate, simethicone, methylparaben, and potassium sorbate, pH 4.2) and OraPlus® was used analogous to aprepitant as control (vehicle 2).
(§12) In the following, animal weights were measured (balance: Mettler Toledo PB602-L). Primary tumor sizes were measured by callipering (manual calliper, OMC Fontana). Tumor sizes were calculated according to the formula W^2×L/2 (L=length and W=the perpendicular width of the tumor, L>W).
(§13) Animal behavior and welfare was observed daily and tumor growth was recorded every two days by calliper measurement over a period of 30 days.
In data set [10] the test system is HCT-116 cells. In words: Xenograft tumor model, preventive application, HCT116. The settings on record: aprepitant 100 mg/kg p.o., fosaprepitant 60 mg/kg i.v., 1x daily from day -2.
Procedure: as §8, §9, §10, §11, §12, §13
In data set [11] the test system is MDA-MB-231 cells. As to the kind of experiment: Xenograft tumor model, preventive application, MDA-MB-231. The settings on record: aprepitant 100 mg/kg p.o., fosaprepitant 60 mg/kg i.v., 1x daily from day -2.
Procedure: as §8, §9, §10, §11, §12, §13
[12] abbreviates: A549, 10 days after tumor cell inoculation.
The mark [13] stands for this setting: A549, 20 days after tumor cell inoculation.
Where [14] appears, read: A549, 30 days after tumor cell inoculation.
[15] abbreviates: HCT116, 10 days after tumor cell inoculation.
Setting [16] is: HCT116, 20 days after tumor cell inoculation.
[17] abbreviates: HCT116, 30 days after tumor cell inoculation.
Setting [18] is: MDA-MB-231, 10 days after tumor cell inoculation.
Setting [19] is: MDA-MB-231, 20 days after tumor cell inoculation.
The mark [20] stands for this setting: MDA-MB-231, 30 days after tumor cell inoculation.

Structures are written as SMILES. pIC50: −log10 of the molar value. Read-outs that look alike come from different tables or passages of the source.

The term pIC50 denotes −log10 of the IC50, conventionally taken in molar units.

Chain of NK1 receptors (P25103 whole entry): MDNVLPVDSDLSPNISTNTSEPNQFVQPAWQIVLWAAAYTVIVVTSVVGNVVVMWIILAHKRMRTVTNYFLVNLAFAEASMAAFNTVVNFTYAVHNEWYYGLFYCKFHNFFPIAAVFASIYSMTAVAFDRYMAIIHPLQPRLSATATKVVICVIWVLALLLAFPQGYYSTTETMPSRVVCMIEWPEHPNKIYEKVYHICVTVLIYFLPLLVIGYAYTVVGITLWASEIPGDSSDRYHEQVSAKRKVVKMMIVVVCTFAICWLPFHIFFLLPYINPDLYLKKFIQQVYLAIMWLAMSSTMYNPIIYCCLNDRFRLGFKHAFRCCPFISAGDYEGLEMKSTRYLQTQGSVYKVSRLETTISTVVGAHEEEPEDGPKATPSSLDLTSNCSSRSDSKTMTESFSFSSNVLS

Turning to `C[C@@H](O[C@H]1OCCN(Cc2nc(=O)[nH][nH]2)[C@H]1c1ccc(F)cc1)c1cc(C(F)(F)F)cc(C(F)(F)F)c1` [Aprepitant], the pIC50 is 5.44 in [1] (192 h, A549 (lung), soft agar growth, incubation time 8 days, read-out: IC50); 5.47 in data set [2] (HCT116 (colon), soft agar growth, incubation time 8 days, read-out: IC50); 4.77 in [3] (MDA-MB231 (breast), soft agar growth, incubation time 11 days, read-out: IC50). The “Tumor growth on preventive application” value in [4] is “reduced growth of triple negative tumor cells”. Further, the average oral bioavailability in [5] is reported as 60-65%. Besides, in data set [6], the “selectivity of NK1 receptors compared to other enzyme transporter, ion channels” value is reported as “at least 3000 times”. The brain tumor growth result in data set [7] is “reduce brain tumor growth”. The “water solubility” value in [8] is reported as “virtually water-insoluble”. Besides, the “Tumor volume (mean)” value in data set [9] (setting [12]), in data set [9] (setting [13]), in [9] (setting [14]), in [10] (setting [15]), in data set [10] (setting [16]) and in data set [10] (setting [17]) was below 20 mm^3 each time. The “Tumor volume (mean)” value in [11] (setting [18]), in [11] (setting [19]) and in data set [11] (setting [20]) was below 20 mm^3 throughout.
On to `C[C@@H](O[C@H]1OCCN(Cc2nc(O)n(P(=O)(O)O)n2)[C@H]1c1ccc(F)cc1)c1cc(C(F)(F)F)cc(C(F)(F)F)c1` [Fosaprepitant], for which the pIC50 in data set [1] (A549, 192 h) was 5.77; in [2] it was 5.52; in [3], 4.44. Besides, in [4], the “Tumor growth on preventive application” value is “reduced growth of triple negative tumor cells”. Also, the “water solubility” value in [8] is “water-soluble”. Moreover, the “Tumor volume (mean)” value in data set [9] (setting [12]), in [9] (setting [13]), in data set [9] (setting [14]), in data set [10] (setting [15]), in data set [10] (setting [16]) and in data set [10] (setting [17]) was below 20 mm^3 throughout. Besides, the “Tumor volume (mean)” value in [11] (setting [18]), in data set [11] (setting [19]) and in [11] (setting [20]) was below 20 mm^3 throughout.
